This is an account of results in US20050090563A1, “Method and compositions for inhibiting the scent tracking ability of mosquitoes and biting midges” (Bedoukian Research, Inc., priority 2003, published 2005).

The test system of this assay is Aedes aegypti mosquitoes. The experiment in a line: Field test of mosquito landings on human subjects near candles containing the test substance. Format: in vivo. Conditions: for Four Day Totals of Mosquito Landings On Subjects: field test, Connecticut, August 2003, candles at four corners of 7 ft x 7 ft squares, 18 inches above ground, four human subjects, landings counted on arms, legs and torso, control without substance 152. The method, then:
In a test of the inhibiting ability of the (S)-(+)-linalool chiral isomer compound of this invention, the following field test was conducted. The study was conducted in August 2003 on a site in Connecticut. Candles containing the test compound or no compound were placed 18 inches above the ground at the four corners of 7 ft×7 ft squares, with the squares being placed 50 ft apart. Four subjects (persons) were employed in the tests. On a given day, the subjects were rotated through all four positions of a square. Each day, treatments rotated to the next position, so that each treatment was tested at each site. The landing of mosquitoes on the subject were counted. Landing counts were taken from the arms, legs and torso of a test subject.

Consider `C=CC(C)(O)CCC=C(C)C` (stereo not drawn) [Linalool: 85% (+), 15% (−), Linalool], for which the “Four Day Totals of Mosquito Landings On Subjects” value was determined as 42. Besides, the “Mosquito landings relative to linalool” value (same candle field test, four day totals) was determined as 73.5%.

Turning to `C=CC(C)(O)CCC=C(C)C` (stereo not drawn) [Linalool: 35% (+), 65% (−), Linalool, reference compound], the “Four Day Totals of Mosquito Landings On Subjects” value was 82.
